In patent US4244946A, “Water-soluble peptides affecting gonadal function” (The Salk Institute for Biological Studies, priority 1979, dated 1981):

Columns and labels:
[1] = tested on: dispersed rat pituitary cells; test: LH secretion by four-day-old primary culture of dispersed rat pituitary cells over 4 hours, radioimmunoassay for rat LH; type: cell-based; conditions: for relative potency, compared to LRF: in vitro LH release, confidence limits in parentheses; for NANOGRAMS OF LH SECRETED: Table I, 4-hour period
Protocol: The peptides prepared in the foregoing Example I are assayed in vitro using a four-day-old primary culture of dispersed rat pituitary cells and compared with LRF. The levels of LH secreted over a 4-hour period in response to the application of peptides are assayed by specific radioimmunoassay for rat LH. The results of testing are expressed in Table I herebelow: […]

[2] = in vivo test of agonistic potency compared with LRF
Protocol: The effectiveness of the peptide compositions prepared in Examples I and II is also tested in vivo, and the relative agonistic potencies of peptides determined in the in vitro assays reported above correlate well with the potencies obtained from in vivo tests.

[3] = tested on: dispersed rat pituitary cells; test: LH secretion by four-day-old primary culture of dispersed rat pituitary cells over 4 hours, radioimmunoassay for rat LH; type: cell-based; conditions: Table II, 4-hour period

For “[D-His^6 (im-Bzl), Pro^9 -NEt]-LRF [Example II]”, the “relative potency, compared to LRF” value [1] was 217(57-952) times that of LRF, the “relative potency, compared to LRF” value ([1]; Pro^9 -NEt]-LRF) was “more than 200 times that of LRF” and the “potency compared with LRF when tested in vivo” value [2] was “very significantly more potent than LRF”. For the same compound, the “NANOGRAMS OF LH SECRETED” value ([3]; 0.003 nM peptide) was 895 nanograms, the “NANOGRAMS OF LH SECRETED” value ([3]; 0.01 nM peptide) was 1256 nanograms and the “NANOGRAMS OF LH SECRETED” value ([3]; 0.03 nM peptide) was 2008 nanograms.

For CC(C)C[C@H](NC(=O)CNC(=O)[C@H](Cc1ccc(O)cc1)NC(=O)[C@H](CO)NC(=O)[C@H](Cc1c[nH]c2ccccc12)NC(=O)[C@H](Cc1c[nH]cn1)NC(=O)[C@@H]1CCC(=O)N1)C(=O)N[C@@H](CCCNC(=N)N)C(=O)N1CCC[C@H]1C(=O)NCC(N)=O [LRF, p-Glu-His-Trp-Ser-Tyr-Gly-Leu-Arg-Pro-Gly-NH2, reference compound], the “NANOGRAMS OF LH SECRETED” value ([1]; 0.1 nM peptide) was 1255 nanograms, the “NANOGRAMS OF LH SECRETED” value ([1]; 0.3 nM peptide) was 1767 nanograms and the “NANOGRAMS OF LH SECRETED” value ([1]; 1.0 nM peptide) was 2167 nanograms. The “NANOGRAMS OF LH SECRETED” value ([1]; 3.0 nM peptide) was 2867 nanograms, the “NANOGRAMS OF LH SECRETED” value ([3]; 0.3 nM peptide) was 631 nanograms and the “NANOGRAMS OF LH SECRETED” value ([3]; 1.0 nM peptide) was 1001 nanograms. For the same compound, the “NANOGRAMS OF LH SECRETED” value ([3]; 3.0 nM peptide) was 1496 nanograms.

In the case of “p-Glu-His-Trp-Ser-Tyr-D-His(im-Bzl)-Leu-Arg-Pro-Gly-NH2 [Example I]”, the “NANOGRAMS OF LH SECRETED” value ([1]; 0.003 nM peptide) is reported as 885 nanograms, the “NANOGRAMS OF LH SECRETED” value ([1]; 0.01 nM peptide) is reported as 1345 nanograms and the “NANOGRAMS OF LH SECRETED” value ([1]; 0.03 nM peptide) is reported as 2150 nanograms. For the same compound, the “NANOGRAMS OF LH SECRETED” value ([1]; 0.1 nM peptide) was 2225 nanograms, the “NANOGRAMS OF LH SECRETED” value ([1]; 0.3 nM peptide) was 2667 nanograms and the “relative potency, compared to LRF” value [1] was 12(5.8-24) times that of LRF. The “relative potency, compared to LRF” value ([1]; listed as [D-His^6 (im-Bzl)]-LRF) was “about 12 times that of LRF” and the “potency compared with LRF when tested in vivo” value [2] was “very significantly more potent than LRF”.
